{"source": "patent US5939387A", "about": "“Method of treating insulin resistance” (Eli Lilly and Company, priority 1996, dated 1999)", "key": {"[1]": {"tested_on": "Male Fischer 344 rats 26 months of age", "experiment": "Aged Rat Study (oral glucose tolerance test)", "assay_type": "in vivo", "conditions": "2 μg/kg sc daily for 6 weeks", "procedure": "Animals: Male Fischer 344 rats 26 months of age were randomly assigned to three treatment groups (8 animals per group). Animals were housed in individual cages in a temperature and humidity-controlled environment and exposed to 12 h light/12 h dark lighting schedule (lights on at 0600 h). Animals were fed ad libitum on a daily basis.\nTreatments: Animals received daily injection (sc., 0.5 ml at 0700 h) of vehicle; active compound, 2 μg/kg body weight for six weeks. At the end of the treatment period and one day prior to testing, food was removed and animals were fasted for 16 hours. Glucose tolerance test was initiated at 0700 h in conscious and freely moving rats. Blood was collected by tail clipping method. A control blood sample (0.2 mL) was collected before ingesting glucose (2.5 g/kg body weight). Subsequent blood samples were collected at 30, 60, 90 and 120 min. after glucose ingestion. Blood was collected on ice and glucose concentrations were determined by bichromatic analysis using the IL Monarch Chemistry Systems (Cat. # 35199, Instrumentation Laboratory, Mass.). Plasma was separated and samples were kept frozen (-20° C.) until assay for insulin concentrations using double antibody radioimmuonoassay. […]\nArea under the response curve was calculated using the trapezoidal method and data were analyzed by ANOVA with Duncan's multiple range test."}, "[2]": {"tested_on": "Zucker Diabetic Fatty (ZDF/Gmi-fa/fa) male rats", "experiment": "ZDF Male Rat Assay", "assay_type": "in vivo", "conditions": "for Total Body Mass, final weight / Epididymal Fat weight / Lean Mass, final weight: ZDF rats; for Total Body Mass, final weight: mean of 8; for Epididymal Fat weight / Lean Mass, final weight: 6 to 14 weeks of age", "from_the_text": "A growth hormone releasing agent is continuously administered to Zucker diabetic male rats subcutaneously by use of an \"Alzet\" mini osmotic pump. The treatment was started at approximately 6 weeks of age and continued for approximately 6-8 weeks. The experiment was designed to allow the study of changes in the typical plasma glucose and insulin level profiles with the progression of the diabetic disease state.\nZucker Diabetic Fatty (ZDF/Gmi™-fa/fa) male rats were obtained from Genetic Models Inc. (Indianapolis, Ind.). The rats were maintained on Purina Formula 5008 rat chow (Purina Mills, Inc., St. Louis, Mo.) and housed in a light controlled room of alternating 12 hour cycles of light and dark. Rats were singly housed and given free access to food and water. At 5 weeks of age, an oral glucose tolerance test (OGTT: 16 hr fast, oral glucose concentration at 2.5 grams/kg body weight; Butler dextrose solution 50%, lot # 3342, Ft. Collins, Colo.; time points at 0, 30, 60, and 120 minutes) was given to each rat and their plasma assayed for glucose and insulin levels. At 6 weeks of age Alzet minipumps, containing a 1.5 inch polyethylene tube extensions (Model 2001, lot # 040401, 1.0 μl/hr, 7 days; Alza Corporation, Palo Alto, Calif.) were implanted subcutaneously. Animals were anesthetized with isoflurane at approximately 2-3% in oxygen. Each rat was shaved and a Povidone Iodine scrub was used at the site of implantation. A small incision was made above and just posterior to the shoulder. A small pocket was made and the pump placed in so the delivery port was away from the incision. The incision was then closed with wound clips and the rat observed and kept warm until awake. At the end of 7 days the pumps were removed from the rat and a new pump implanted subcutaneously as previously described. Pumps contained vehicle (PBS) or a growth hormone releasing agent (8 rats/group).\nThe GH releasing agent was prepared at concentrations of 625 and 62.5 μg/mL and loaded into Alzet pumps using sterile techniques. Body weight and food consumption were monitored once a week. Rats were bled from the tail for plasma glucose, insulin, and growth hormone levels weekly. One week prior to sacrificing the rats, an I.P. injection of tetracycline was given to each rat and then again the day before sacrificing (20 mg/mL; 0.5 mL/animal) to determine bone growth.\nAssays: Plasma glucose concentrations were determined by the glucose hexokinase method (IL Test GLucose, lot # I1040502; Instrumentation Laboratory Company, Lexington, Mass.) with a model 2000 Monarch (Instrumentation Laboratory Company, Lexington, Mass.). Insulin was determined with a Coat-a-Count kit (Diagnostic Products Corporation, Los Angeles, Calif.) using a rat insulin standard (Lilly Research Laboratories, Indianapolis, Ind.). Glucagon was assayed with a double antibody procedure using guinea pig anti-glucagon (Catalog no. 1032; Linco Research, St. Louis, Mo.), goat anti-guinea pig (lot # T67-7GZ-237); Lilly Research Laboratories, Indianapolis, Ind.) and ^125 I-glucagon (DuPont New England Nuclear, Wilmington, Del.). Growth hormone was assayed using rat growth hormone standard (purchased from Parlow, Torrance Calif.; rGH-RP-2, lot AFP-3190B), anti rGH (purchased from Parlow, Torrance Calif.; rGH-s-r, lot AFP411S), ^125 I-rGH (Corning-Hazelton, Vienna, Va.) and protein A IGSL100 (Enzyme Center, Malden, Mass.)."}, "[3]": {"conditions": "age 6 weeks, 0.001 μg/min continuous infusion"}, "[4]": {"conditions": "age 6 weeks, 0.01 μg/min continuous infusion"}, "[5]": {"conditions": "age 7 weeks, 0.001 μg/min continuous infusion"}, "[6]": {"conditions": "age 7 weeks, 0.01 μg/min continuous infusion"}, "[7]": {"conditions": "age 8 weeks, 0.001 μg/min continuous infusion"}, "[8]": {"conditions": "age 8 weeks, 0.01 μg/min continuous infusion"}, "[9]": {"conditions": "age 9 weeks, 0.001 μg/min continuous infusion"}, "[10]": {"conditions": "age 9 weeks, 0.01 μg/min continuous infusion"}, "[11]": {"conditions": "age 10 weeks, 0.001 μg/min continuous infusion"}, "[12]": {"conditions": "age 10 weeks, 0.01 μg/min continuous infusion"}, "[13]": {"conditions": "age 11 weeks, 0.001 μg/min continuous infusion"}, "[14]": {"conditions": "age 11 weeks, 0.01 μg/min continuous infusion"}, "[15]": {"conditions": "age 12 weeks, 0.001 μg/min continuous infusion"}, "[16]": {"conditions": "age 12 weeks, 0.01 μg/min continuous infusion"}, "[17]": {"conditions": "age 13 weeks, 0.001 μg/min continuous infusion"}, "[18]": {"conditions": "age 13 weeks, 0.01 μg/min continuous infusion"}}, "note": "*: point of attachment. p‑methylhippuroyl = Cc1ccc(C(=O)NCC(=O)*)cc1", "data": [{"substance": "p-methyl hippuroyl Leu(27) (1-44)OH hGHRH ({p‑methylhippuroyl}-YADAIFTNSYRKVLGQLSARKLLQDILSRQQGESNQERGARARL-OH) [GHRH Analog, functional analog of GHRH disclosed in EP 511 003, agent capable of stimulating growth hormone release]", "values": [{"measurement": "Plasma Glucose, oral glucose tolerance test", "setting": "[1]; time 0 min", "result": 104.2, "unit": "mg/dL"}, {"measurement": "Plasma Insulin, oral glucose tolerance test", "setting": "[1]; time 0 min", "result": 1.26, "unit": "ng/mL"}, {"measurement": "Plasma Glucose, oral glucose tolerance test", "setting": "[1]; time 30 min", "result": 148.4, "unit": "mg/dL"}, {"measurement": "Plasma Insulin, oral glucose tolerance test", "setting": "[1]; time 30 min", "result": 1.64, "unit": "ng/mL"}, {"measurement": "Plasma Glucose, oral glucose tolerance test", "setting": "[1]; time 60 min", "result": 154.8, "unit": "mg/dL"}, {"measurement": "Plasma Insulin, oral glucose tolerance test", "setting": "[1]; time 60 min", "result": 1.92, "unit": "ng/mL"}, {"measurement": "Plasma Glucose, oral glucose tolerance test", "setting": "[1]; time 120 min", "result": 148.1, "unit": "mg/dL"}, {"measurement": "Plasma Insulin, oral glucose tolerance test", "setting": "[1]; time 120 min", "result": 1.41, "unit": "ng/mL"}, {"measurement": "AUC, area under the plasma glucose vs. time curve", "setting": "[1]; trapezoidal method", "result": "16,833.80 mg. min/dL"}, {"measurement": "AUC, area under the plasma insulin vs. time curve", "setting": "[1]; trapezoidal method", "result": 196.25, "unit": "ng·min/mL"}, {"measurement": "Total Body Mass, final weight", "setting": "[2]; 0.001 μg/min continuous sc infusion from 6 to 14 weeks of age", "result": 327.06, "unit": "g"}, {"measurement": "Epididymal Fat weight", "setting": "[2]; 0.001 μg/min infusion", "result": 0.25, "unit": "g"}, {"measurement": "Lean Mass, final weight", "setting": "[2]; 0.001 μg/min infusion", "result": 327.06, "unit": "g"}, {"measurement": "Total Body Mass, final weight", "setting": "[2]; 0.01 μg/min continuous sc infusion from 6 to 14 weeks of age", "result": 388.16, "unit": "g"}, {"measurement": "Epididymal Fat weight", "setting": "[2]; 0.01 μg/min infusion", "result": 0.33, "unit": "g"}, {"measurement": "Lean Mass, final weight", "setting": "[2]; 0.01 μg/min infusion", "result": 388.16, "unit": "g"}, {"measurement": "Mean Plasma Glucose", "setting": "[2]; [3]", "result": 139.99, "unit": "mg/dL"}, {"measurement": "Mean Plasma Insulin", "setting": "[2]; [3]", "result": 9.81, "unit": "ng/mL"}, {"measurement": "Mean Plasma Glucose", "setting": "[2]; [4]", "result": 139.86, "unit": "mg/dL"}, {"measurement": "Mean Plasma Insulin", "setting": "[2]; [4]", "result": 11.21, "unit": "ng/mL"}, {"measurement": "Mean Plasma Glucose", "setting": "[2]; [5]", "result": 155.34, "unit": "mg/dL"}, {"measurement": "Mean Plasma Insulin", "setting": "[2]; [5]", "result": 23.91, "unit": "ng/mL"}, {"measurement": "Mean Plasma Glucose", "setting": "[2]; [6]", "result": 148.68, "unit": "mg/dL"}, {"measurement": "Mean Plasma Insulin", "setting": "[2]; [6]", "result": 24.76, "unit": "ng/mL"}, {"measurement": "Mean Plasma Glucose", "setting": "[2]; [7]", "result": 183.41, "unit": "mg/dL"}, {"measurement": "Mean Plasma Insulin", "setting": "[2]; [7]", "result": 27.33, "unit": "ng/mL"}, {"measurement": "Mean Plasma Glucose", "setting": "[2]; [8]", "result": 165.01, "unit": "mg/dL"}, {"measurement": "Mean Plasma Insulin", "setting": "[2]; [8]", "result": 26.81, "unit": "ng/mL"}, {"measurement": "Mean Plasma Glucose", "setting": "[2]; [9]", "result": 331.91, "unit": "mg/dL"}, {"measurement": "Mean Plasma Insulin", "setting": "[2]; [9]", "result": 21.11, "unit": "ng/mL"}, {"measurement": "Mean Plasma Glucose", "setting": "[2]; [10]", "result": 215.49, "unit": "mg/dL"}, {"measurement": "Mean Plasma Insulin", "setting": "[2]; [10]", "result": 24.23, "unit": "ng/mL"}, {"measurement": "Mean Plasma Glucose", "setting": "[2]; [11]", "result": 389.18, "unit": "mg/dL"}, {"measurement": "Mean Plasma Insulin", "setting": "[2]; [11]", "result": 20.18, "unit": "ng/mL"}, {"measurement": "Mean Plasma Glucose", "setting": "[2]; [12]", "result": 235.91, "unit": "mg/dL"}, {"measurement": "Mean Plasma Insulin", "setting": "[2]; [12]", "result": 27.85, "unit": "ng/mL"}, {"measurement": "Mean Plasma Glucose", "setting": "[2]; [13]", "result": 392.65, "unit": "mg/dL"}, {"measurement": "Mean Plasma Insulin", "setting": "[2]; [13]", "result": 20.98, "unit": "ng/mL"}, {"measurement": "Mean Plasma Glucose", "setting": "[2]; [14]", "result": 232.89, "unit": "mg/dL"}, {"measurement": "Mean Plasma Insulin", "setting": "[2]; [14]", "result": 30.05, "unit": "ng/mL"}, {"measurement": "Mean Plasma Glucose", "setting": "[2]; [15]", "result": 496.75, "unit": "mg/dL"}, {"measurement": "Mean Plasma Insulin", "setting": "[2]; [15]", "result": 21.48, "unit": "ng/mL"}, {"measurement": "Mean Plasma Glucose", "setting": "[2]; [16]", "result": 317.11, "unit": "mg/dL"}, {"measurement": "Mean Plasma Insulin", "setting": "[2]; [16]", "result": 36.45, "unit": "ng/mL"}, {"measurement": "Mean Plasma Glucose", "setting": "[2]; [17]", "result": 446.03, "unit": "mg/dL"}, {"measurement": "Mean Plasma Insulin", "setting": "[2]; [17]", "result": 16.29, "unit": "ng/mL"}, {"measurement": "Mean Plasma Glucose", "setting": "[2]; [18]", "result": 248.28, "unit": "mg/dL"}, {"measurement": "Mean Plasma Insulin", "setting": "[2]; [18]", "result": 29.92, "unit": "ng/mL"}, {"measurement": "Mean Plasma Glucose", "setting": "[2]; age 14 weeks, 0.001 μg/min continuous infusion", "result": 461.40, "unit": "mg/dL"}, {"measurement": "Mean Plasma Glucose", "setting": "[2]; age 14 weeks, 0.01 μg/min continuous infusion", "result": 229.36, "unit": "mg/dL"}]}]}
